In the experiment the target is T1, glucan synthase (GS) (Candida albicans, UniProt O13428).
T1 construct: Extraction of GS activity from membranes was performed at a protein concentration of 5 mg/mL in extraction buffer; endogenous in cells; host or cells: Candida albicans MY1055 (membrane fraction, detergent extraction, product entrapment)
T1 sequence (O13428 1-1897): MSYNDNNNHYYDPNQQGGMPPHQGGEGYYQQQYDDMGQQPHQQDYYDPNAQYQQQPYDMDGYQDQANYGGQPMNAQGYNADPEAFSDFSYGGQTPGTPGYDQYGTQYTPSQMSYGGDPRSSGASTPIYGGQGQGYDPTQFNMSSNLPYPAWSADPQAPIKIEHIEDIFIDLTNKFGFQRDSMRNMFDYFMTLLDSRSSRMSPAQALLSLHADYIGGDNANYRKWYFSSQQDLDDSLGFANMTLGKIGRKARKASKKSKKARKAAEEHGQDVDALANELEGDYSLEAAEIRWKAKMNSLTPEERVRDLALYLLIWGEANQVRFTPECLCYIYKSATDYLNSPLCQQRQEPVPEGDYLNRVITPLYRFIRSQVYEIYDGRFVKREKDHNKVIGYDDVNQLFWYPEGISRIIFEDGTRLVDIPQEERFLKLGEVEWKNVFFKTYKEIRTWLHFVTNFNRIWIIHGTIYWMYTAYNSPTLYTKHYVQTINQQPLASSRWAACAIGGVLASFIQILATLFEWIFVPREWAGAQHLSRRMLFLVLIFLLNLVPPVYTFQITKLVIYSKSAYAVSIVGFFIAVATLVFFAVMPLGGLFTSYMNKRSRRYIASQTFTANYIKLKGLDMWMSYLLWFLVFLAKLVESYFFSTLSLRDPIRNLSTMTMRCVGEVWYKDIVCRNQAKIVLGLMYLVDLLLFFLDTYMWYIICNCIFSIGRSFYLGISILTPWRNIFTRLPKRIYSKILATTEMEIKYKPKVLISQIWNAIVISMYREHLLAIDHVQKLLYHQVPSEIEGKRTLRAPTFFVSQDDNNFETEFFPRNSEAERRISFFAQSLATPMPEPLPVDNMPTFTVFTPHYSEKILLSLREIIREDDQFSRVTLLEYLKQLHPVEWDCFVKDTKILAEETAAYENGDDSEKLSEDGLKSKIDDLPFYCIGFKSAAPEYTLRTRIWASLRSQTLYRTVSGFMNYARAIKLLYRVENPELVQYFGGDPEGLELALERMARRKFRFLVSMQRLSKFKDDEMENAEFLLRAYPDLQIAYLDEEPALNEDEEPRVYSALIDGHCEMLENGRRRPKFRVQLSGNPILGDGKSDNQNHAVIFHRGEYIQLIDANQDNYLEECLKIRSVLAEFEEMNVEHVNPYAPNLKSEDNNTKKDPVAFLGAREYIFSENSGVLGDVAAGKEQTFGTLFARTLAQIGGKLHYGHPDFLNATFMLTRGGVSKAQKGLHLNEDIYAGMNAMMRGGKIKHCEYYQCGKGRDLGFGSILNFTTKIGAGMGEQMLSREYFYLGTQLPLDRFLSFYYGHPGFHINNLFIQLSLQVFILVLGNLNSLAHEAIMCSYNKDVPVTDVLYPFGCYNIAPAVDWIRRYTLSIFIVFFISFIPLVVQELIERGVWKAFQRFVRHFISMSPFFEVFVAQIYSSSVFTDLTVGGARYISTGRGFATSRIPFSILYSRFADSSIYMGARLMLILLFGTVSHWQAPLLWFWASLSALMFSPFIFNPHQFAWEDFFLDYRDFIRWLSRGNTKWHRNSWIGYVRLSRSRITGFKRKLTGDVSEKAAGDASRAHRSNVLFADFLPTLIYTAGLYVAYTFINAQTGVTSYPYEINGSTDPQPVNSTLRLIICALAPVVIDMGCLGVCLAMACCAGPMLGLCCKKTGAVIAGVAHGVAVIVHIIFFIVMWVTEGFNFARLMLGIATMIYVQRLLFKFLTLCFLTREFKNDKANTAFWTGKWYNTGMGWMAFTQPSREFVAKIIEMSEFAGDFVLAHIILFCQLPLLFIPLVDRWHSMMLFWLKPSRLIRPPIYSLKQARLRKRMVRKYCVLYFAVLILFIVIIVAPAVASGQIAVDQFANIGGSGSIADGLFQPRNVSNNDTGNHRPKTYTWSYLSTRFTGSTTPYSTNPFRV
T1 sequence (O42825 1-195 partner limits assumed): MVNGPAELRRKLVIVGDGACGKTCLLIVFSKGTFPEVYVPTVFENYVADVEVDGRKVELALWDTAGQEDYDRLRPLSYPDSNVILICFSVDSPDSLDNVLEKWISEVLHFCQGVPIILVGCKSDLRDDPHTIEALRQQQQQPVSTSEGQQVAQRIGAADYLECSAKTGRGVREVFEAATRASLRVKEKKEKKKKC
As to the kind of experiment: Glucan synthase inhibition (polymerization assay, 96-well). Format: biochemical. The note with it: glucan synthase prepared from Candida albicans MY1055; 60 min incubation at 22° C.; read-out: Candida Albicans GS IC50 (ng/mL) (converted). The procedure: The in vitro evaluation of glucan synthase inhibitory activity of compounds was measured in a polymerization assay in 96-well format. Each well contained 100 μL of ^3H-UDPG at 0.5 mM (6000 to 8000 dpm/nmol), 50 mM HEPES pH 7.5 (Sigma), 10% w/v glycerol (Sigma), 1.5 mg/mL bovine serum albumin (Sigma A 9647. Lot 44H0190), 25 mM KF (Fisher), 1 mM EDTA (Gibco ULTRAPURE), 25 μM GTP-γ-S, enzyme sufficient to give 3 to 6 nmoles incorporation during the 60 min incubation at 22° C., and test compound added from wells in 3-fold serial dilutions in 100% DMSO (1 μL/well). The reaction was stopped by the addition of 100 μL of 20% trichloroacetic acid. Plates were chilled for a minimum of 10 min, and precipitated glucan collected by filtration on GF/C plates (Packard UNIFILTER®-96), washed with 5 cycles of water (about 1 mL/well each cycle) using a Packard FILTERMATE HARVESTER. 40 μL/well scintillation fluid (Packard ULTIMA GOLD TM-XR) was added and the sealed plates counted in a WALLAC BETA counter in top-counting mode at an efficiency of approximately 40%.
Stock solutions were stored at 10 mg/mL in DMSO at −20° C. For each new enzyme preparation, the initial titration performed started at 1 mg/mL, which was prepared by making a 10-fold dilution in DMSO (5 μL to 50 μL). 40 μL of this stock was placed in column 12 of a round-bottomed 96-well microtiter plate. 40 μL DMSO was added to columns 1 to 11 in the same row and ten 3-fold serial dilutions performed, by transferring 20 μL from column 12 to column 11 etc., with 4 mixings before each transfer. No test compound was transferred to from column 2 to column 1. Duplicate aliquots of 1 μL of all 12 dilutions were then transferred to the side walls of a 96-well Bioblock 1.1 mL plate (Fisher brand) to create two rows. Graphs of the primary data were created in PRISM software (the average of two determinations) using PRISM's curve fitting program (sigmoidal dose response non-linear regression). The amount of compound required to inhibit glucan synthase activity by 50% in this assay (IC50-ng/mL) was calculated.
Routine analysis was performed with glucan synthase (GS) prepared from Candida albicans MY1055 by the following procedure: MY1055 was grown in 10 liters YPD medium (10 g yeast extract, 20 g tryptone, 20 g glucose per liter) with vigorous shaking at 30° C., to early stationary phase. Cells were harvested by centrifugation, the pellet was washed and frozen at −70° C. until breakage. Thawed pellets were shaken with an equal volume of breakage buffer (50 mM HEPES pH 7.4, 10% glycerol, 1 mM EDTA, 1 mM PMSF, 1 mM DTT) and 4 times their weight of 0.5 mm acid washed glass beads for 2 hours at 4° C. Extent of breakage was assessed visually at 40× magnification. After low speed centrifugation to remove cell debris, the supernatant was centrifuged at 100,000×g for 60 min. to separate membranes plus ribosomes from cytoplasmic components. Membranes were further washed two additional times with breakage buffer using the same centrifugation conditions and finally suspended in breakage buffer at 25 to 30 mg/mL protein (Biorad) for storage at −70° C. Extraction of GS activity from membranes was performed at a protein concentration of 5 mg/mL in extraction buffer (50 mM NaPO4 pH 7.5, 0.1 M KCl, 0.1M Na citrate, 20% glycerol, 5 μM GTP-γ-S, 1 mM DTT, 1 mM PMSF, 3 μg/mL pepstatin) plus 0.25% W1 by gentle mixing at 4° C. for 60 min, followed by centrifugation at 100,000×g for 60 min. After centrifugation, clear supernatant was removed from a pellet consisting of a hard layer usually with small amounts of gelatinous unextracted membranes above it.
Trapping was initiated immediately by 5-fold dilution in trapping buffer (50 mM HEPES pH 7.5, 10 mM KF, 1 mM EDTA, 2 mg/mL BSA) plus 2.5 mM UDPG and 10 μM GTP-γ-S. After incubation at 25° C. for 60 to 90 minutes, glucan was harvested by low speed centrifugation (3,000×g, 10 min). […]
With `CC(C)[C@@H](C)[C@@]1(C)CC[C@]2(C)[C@H]3CC[C@@H]4[C@@]5(COC[C@@]4(C)[C@@H](OC[C@H](N)C(C)(C)C)[C@H](n4nnc(N)n4)C5)C3=CC[C@@]2(C)[C@@H]1C(=O)O` [Example 22, (1S,4aR,6aS,7R;8R,10aR,10bR,12aR,14R,15R)-15-[[(2R)-2-amino-3,3-dimethylbutyl]oxy]-14-(5-amino-2H-tetrazol-2-yl)-8-[(1R)-1,2-dimethylpropyl]-1,6,6a,7,8,9,10,10a,10b,11,12,12a-dodecahydro-1,6a,8,10a-tetramethyl-4H-1,4a-propano-2H-phenanthro[1,2-c]pyran-7-carboxylic acid], the IC50 was 6.11 nM. The same measure for `CCC(N)(CC)CO[C@H]1[C@H](n2nnc(N)n2)C[C@@]23COC[C@]1(C)[C@@H]2CC[C@H]1C3=CC[C@@]2(C)[C@H](C(=O)O)[C@@](C)([C@H](C)C(C)C)CC[C@]12C` [Example 23, (1S,4aR,6aS,7R,8R,10aR,10bR,12aR,14R,15R)-15-(2-amino-2-ethylbutoxy)-14-(5-amino-2H-tetrazol-2-yl)-8-[(1R)-1,2-dimethylpropyl]-1,6,6a,7,8,9,10,10a,10b,11,12,12a-dodecahydro-1,6a,8,10a-tetramethyl-4H-1,4a-propano-2H-phenanthro[1,2-c]pyran-7-carboxylic acid]: 7.63 nM. Take `CC(C)[C@@H](C)[C@@]1(C)CC[C@]2(C)[C@H]3CC[C@@H]4[C@@]5(COC[C@@]4(C)[C@@H](OCCC4(N)CCCC4)[C@H](n4nnc(N)n4)C5)C3=CC[C@@]2(C)[C@@H]1C(=O)O` [Example 25, (1S,4aR,6aS,7R,8R,10aR,10bR,12aR,14R,15R)-15-[2-(1-aminocyclopentyl)ethoxy]-14-(5-amino-2H-tetrazol-2-yl)-8-[(1R)-1,2-dimethylpropyl]-1,6,6a,7,8,9,10,10a,10b,11,12,12a-dodecahydro-1,6a,8,10a-tetramethyl-4H-1,4a-propano-2H-phenanthro[1,2-c]pyran-7-carboxylic acid]: the IC50 was 40.5 nM. As for `CNC1(CO[C@H]2[C@H](n3nnc(N)n3)C[C@@]34COC[C@]2(C)[C@@H]3CC[C@H]2C4=CC[C@@]3(C)[C@H](C(=O)O)[C@@](C)([C@H](C)C(C)C)CC[C@]23C)CCOCC1` [Example 27, (1S,4aR,6aS,7R,8R,10aR,10bR,12aR,14R,15R)-14-(5-amino-2H-tetrazol-2-yl)-8-[(1R)-1,2-dimethylpropyl]-15-[[tetrahydro-4-(methylamino)-2H-pyran-4-yl]methoxy]-1,6,6a,7,8,9,10,10a,10b,11,12,12a-dodecahydro-1,6a,8,10a-tetramethyl-4H-1,4a-propano-2H-phenanthro[1,2-c]pyran-7-carboxylic acid], the IC50 is 5.86 nM. `CC(C)[C@@H](C)[C@@]1(C)CC[C@]2(C)[C@H]3CC[C@@H]4[C@@]5(COC[C@@]4(C)[C@@H](OCC4(N)CCSCC4)[C@H](n4nnc(N)n4)C5)C3=CC[C@@]2(C)[C@@H]1C(=O)O` [Example 30, (1S,4aR,6aS,7R,8R,10aR,10bR,12aR,14R,15R)-15-[(4-aminotetrahydro-2H-thiopyran-4-yl)methoxy]-14-(5-amino-2H-tetrazol-2-yl)-8-[(1R)-1,2-dimethylpropyl]-1,6,6a,7,8,9,10,10a,10b,11,12,12a-dodecahydro-1,6a,8,10a-tetramethyl-4H-1,4a-propano-2H-phenanthro[1,2-c]pyran-7-carboxylic acid]: the IC50 was 2.92 nM. For the compound `CNC1(CO[C@H]2[C@H](n3nnc(N)n3)C[C@@]34COC[C@]2(C)[C@@H]3CC[C@H]2C4=CC[C@@]3(C)[C@H](C(=O)O)[C@@](C)([C@H](C)C(C)C)CC[C@]23C)CCCCC1` [Example 32, (1S,4aR,6aS,7R,8R,10aR,10bR,12aR,14R,15R)-14-(5-amino-2H-tetrazol-2-yl)-8-[(1R)-1,2-dimethylpropyl]-15-[[1-(methylamino)cyclohexyl]methoxy]-1,6,6a,7,8,9,10,10a,10b,11,12,12a-dodecahydro-1,6a,8,10a-tetramethyl-4H-1,4a-propano-2H-phenanthro[1,2-c]pyran-7-carboxylic acid], the IC50 was 11.7 nM. The same measure for `CC(C)[C@@H](C)[C@@]1(C)CC[C@]2(C)[C@H]3CC[C@@H]4[C@@]5(COC[C@@]4(C)[C@@H](OCCNCCCN(C)C)[C@H](n4nnc(N)n4)C5)C3=CC[C@@]2(C)[C@@H]1C(=O)O` [Example 36, (1S,4aR,6aS,7R,8R,10aR,10bR,12aR,14R,15R)-14-(5-amino-2H-tetrazol-2-yl)-15-[2-[[3-(dimethylamino)propyl]amino]ethoxy]-8-[(1R)-1,2-dimethylpropyl]-1,6,6a,7,8,9,10,10a,10b,11,12,12a-dodecahydro-1,6a,8,10a-tetramethyl-4H-1,4a-propano-2H-phenanthro[1,2-c]pyran-7-carboxylic acid]: 8.77 nM. For `CC(=O)Nc1nnnn1[C@@H]1C[C@@]23COC[C@](C)([C@@H]2CC[C@H]2C3=CC[C@@]3(C)[C@H](C(=O)O)[C@@](C)([C@H](C)C(C)C)CC[C@]23C)[C@H]1OC[C@](C)(N)C(C)C` [Example 38A, (1S,4aR,6aS,7R,8R,10aR,10bR,12aR,14R,15R)-14-[5-(acetylamino)-1H-tetrazol-1-yl]-15-[[(2R)-2-amino-2,3-dimethylbutyl]oxy]-8-[(1R)-1,2-dimethylpropyl]-1,6,6a,7,8,9,10,10a,10b,11,12,12a-dodecahydro-1,6a,8,10a-tetramethyl-4H-1,4a-propano-2H-phenanthro[1,2-c]pyran-7-carboxylic acid], the IC50 was 81.8 nM. The same measure for `CN[C@@](C)(CO[C@H]1[C@H](n2nnc(NC(C)=O)n2)C[C@@]23COC[C@]1(C)[C@@H]2CC[C@H]1C3=CC[C@@]2(C)[C@H](C(=O)O)[C@@](C)([C@H](C)C(C)C)CC[C@]12C)C(C)C` [Example 39B, (1S,4aR,6aS,7R,8R,10aR,10bR,12aR,14R,15R)-14-[5-(acetylamino)-2H-tetrazol-2-yl]-15-[[(2R)-2,3-dimethyl-2-(methylamino)butyl]oxy]-8-[(1R)-1,2-dimethylpropyl]-1,6,6a,7,8,9,10,10a,10b,11,12,12a-dodecahydro-1,6a,8,10a-tetramethyl-4H-1,4a-propano-2H-phenanthro[1,2-c]pyran-7-carboxylic acid]: 15.5 nM; for `Cc1nnnn1[C@@H]1C[C@@]23COC[C@](C)([C@@H]2CC[C@H]2C3=CC[C@@]3(C)[C@H](C(=O)O)[C@@](C)([C@H](C)C(C)C)CC[C@]23C)[C@H]1OCCN` [Example 41A, (1S,4aR,6aS,7R,8R,10aR,10bR,12aR,14R,15R)-15-(2-aminoethoxy)-8-[(1R)-1,2-dimethylpropyl]-14-(5-methyl-1H-tetrazol-1-yl)-1,6,6a,7,8,9,10,10a,10b,11,12,12a-dodecahydro-1,6a,8,10a-tetramethyl-4H-1,4a-propano-2H-phenanthro[1,2-c]pyran-7-carboxylic acid]: 199 nM.

The values above are taken from US8722727B2, “Antifungal agents” (Seynix, Inc., priority 2008, dated 2014).
